# Reference: patent US20030077740A1, “Presenilin/Crk binding polypeptides (PCBP) and methods of use thereof” (priority 2001, published 2003)
# Residues, ends and D or L forms follow the SMILES beside them. *: point of attachment. Cbz = O=C(OCc1ccccc1)*
# How the values were obtained:
# APP695/PBP cells = assay: protease inhibitors on APP secretion and intracellular accumulation; format: cell-based, rat
# Method: Cells and transfection: Neuronal cell line B103 (Schubert et al. (1974) Nature, 249, 224-227) was grown in Dulbecco's modified Eagle's medium (DMEM) supplemented with 10% heat-inactivated fetal bovine serum (FBS). B103 cells were transfected with APP695 using G418 selection (Schubert et al. (1989) Neuron, 3: 689-694) and with various plasmids by Lepfectamin2000 (GIBCO; NJ, USA) using puromycin selection for PBP or hygromycin for PS1, respectively. The stably transfected cells were subsequently cloned and screened for protein expression by western blot analysis.
# Western blotting, metabolic labeling and immunoprecipitation: For western blotting, cells were washed twice with ice-cold PBS and lysed in lysis buffer (1% Triton, 50 mM Hepes pH 7.5, 50 mM NaCl, 5 mM EDTA, 1 mM Na3VO4, 50 mM NaF, 10 mM Na4P2O7, plus a mixture of protease inhibitors (Complete Mini; Roche, Ind., USA). Protein concentrations were determined by Coomassie Plus (Pierce; IL, USA). The same amount of protein from each sample was separated on Novex pre-cast polyacrylamide gels (Invitrogen; CA, USA), and transferred to Immobulin membranes (Millipore; MA, USA). The membranes were blocked with 5% non-fat milk in Tris-buffered saline for 1 hour at room temperature. Following overnight incubation at 4° C. with primary antibodies, the antigens are detected with horseradish peroxidase-conjugated secondary antibodies (Bio-Rad; CA, USA; 1:20,000), an ECL kit (Amersham; NJ, USA), and exposed to films. For pulse-chase experiments, cells were grown to 80% confluency and incubated in methionine-free DMEM for 90 min. Cells were labeled with [^35]S-methionine (400 μCi/ml in methionine-free DMEM plus 5% dialyzed FBS) for 10 min at 37° C., and the medium was replaced with serum-free DMEM medium plus Ni-supplement (Sigma Inc.; MI, USA). The media were collected and cells were lysed after different time periods. Protein concentrations were determined and the same amounts of proteins were immunoprecipitated with antibodies at 4° C. overnight 25 μl of anti-mouse IgG agarose (Roche) was then added to each sample and incubated at 4° C. for 2 hours on a rocker platform. The immunoprecipitates were collected by centrifugation and washed 4 times with the washing buffer (0.1% Triton, 20 mM Hepes, 150 mM NaCl, 10% glycerol). The agarose beads were resuspended in 30 μl SDS-PAGE sample buffer boiled for 3 min to release the proteins. After 2 min of centrifugation, the supernatants were separated on 8% Tri-glycine gels. The gels were dried and subjected to autoradiography and quantitated by NIH image.
# To independently verify the data on APP degradation, the effect of two protease inhibitors, leupeptin and MG132, on the secretion and the intracellular accumulation of APP was studied. Leupeptin is thought to inhibit lysosomal proteases, whereas MG132 is thought to inhibit ER membrane protein degradation through the ubiquitin-proteasome pathway (Soriano et al. (1999) J. Biol. Chem., 274: 32295-32300).
# B103 (APP695) cells = assay: APP secretion by transfected B103 (APP695) cells, Western blotting; format: cell-based, rat; conditions: overexpression of the protein
# [1] = molecular target: T1, large hydrophilic loop of PS1 (Homo sapiens, UniProt P49768); assay: co-immunoprecipitation in 293T cells, PS1 loop; format: binding; conditions: immunoprecipitation with anti-TAG, 48 hrs after transfection, PS1-FLAG loop
# T1 construct: and a large hydrophilic loop (amino acids 263-407); expressed in transfected cells; host or cells: 293T human kidney cells, pCIS2 expression vector
# Method: To confirm the yeast two-hybrid data, the interaction between PBP and PSs was assayed in mammalian cells by immunoprecipitation. Human kidney 293-T cells, and monkey kidney COS-7 cells were cultured in Dulbecco's modified Eagle's medium supplemented with 10% fetal calf serum at 37° C. in a 10% CO2 atmosphere. A nine-amino acid TAG epitope ([…]) (SEQ ID NO:6) was incorporated in-frame at the 3′ end of the PBP cDNA (PBP-TAG), and an eight amino acid FLAG epitope ([…]) (SEQ ID NO:7) was attached in frame at the 5′ end of the large hydrophilic loop of PS1 cDNA and at the 3′ end of full length PS1 cDNA as described previously (Kimura, H., Proc. Natl. Acad. Sci. (USA), 90:2165-2169 (1993)). The resulting fragments were inserted into the pCIS2 expression vector (Genentech, San Francisco, Calif.) for transient or constitutive expression. […]
# For immunoprecipitation of the large hydrophilic loop of PSs or Crk with PBP, cells were lysed in RIPA buffer (100 mM NaCl, 0.5% NP-40, 0.5% DOC, 0.1% SDS, 50 mM Tris, pH 7.5, 1 mM PMSF and 1 μg/ml aprotinin, 1 μg/l leupeptin) on ice for 30 min. […] The bound antibodies were detected by the ECL-plus chemiluminescence system (Amersham, Arlington Heights, Ill.).
# PS1 = molecular target: T2, PS1 (Homo sapiens, UniProt P49768); assay: yeast two-hybrid interaction with PS1; format: binding; conditions: yeast two-hybrid assay
# T2 construct: the large hydrophilic loop region of PS1 (amino acids 1-81, 429-468, 263-407, respectively) were inserted into the pGBT9 vector; expressed in transfected cells; host or cells: yeast Y190
# PBP = conditions: PS fragment fused to GAL4-DNA binding domain, PBPα-GAL4 activation domain, β-galactosidase assay
# Method: The yeast two-hybrid system was used to screen for cytoplasmic proteins that interact with PSs. […] Yeast (Y190) were co-transformed with each of the PS1 constructs and a mouse brain cDNA library fused to the GAL4 activation domain in the pGAD424 vector (Clontech). Transformants were plated on yeast drop-out media (Clontech) contain g 20 mM 3-amino-1,2,4-triazole (3-AT), and after 10 days of incubation at 30° C., colonies were transferred to Nitropure membrane Micron Separation Inc., Westboro, MA), and the X-gal assay was performed.
# To determine the minimal sequence of the large hydrophilic loop of PS that is required for the interaction with PBP, three deletion fragments of the loop were inserted into pGBT9 and the interaction with PBP was examined using the yeast two-hybrid system.
# [2] = 100 μM, either cells, data not shown
compound,measurement,setting,value
CC(C)C[C@@H](C=O)NC(=O)[C@H](CC(C)C)NC(=O)[C@H](CC(C)C)NC(=O)OCc1ccccc1 [MG132] (Cbz-Leu-Leu-Leu-aldehyde),APP secretion,"APP695/PBP cells; 10 μM, APP695/PBP cells",significantly increased
same,intracellular accumulation of APP,"APP695/PBP cells; 10 μM, APP695/PBP cells",significantly increased
same,secretion of APP in cells expressing PBP,APP695/PBP cells; after 16 hours of treatment,almost restored to the control level
CC(=O)N[C@@H](CC(C)C)C(=O)N[C@@H](CC(C)C)C(=O)N[C@H](C=O)CCCNC(=N)N [leupeptin],APP secretion,APP695/PBP cells; [2],no effect
same,intracellular accumulation of APP,APP695/PBP cells; [2],no effect
"Dock 180: protein 40% homologous to PBP, has a SH3 domain and interacts with Crk [reference compound]",secretion of APP,B103 (APP695) cells,not affected
same,interaction with PS1,[1],did not show any interaction
same,functional interaction with PS1,PS1,nor did it functionally interact
EERGVKLGLGDFIFYSVLVGKA [consensus],interaction with PBP,PBP,exhibit an interaction
